One data set relates to Puccinia recondite. As to the kind of experiment: Puccinia test (wheat)/protective. Format: in vivo. The conditions noted are these: 240 h, wheat plants, protective, application rate 500 g/ha, evaluation ten days after inoculation, read-out: Efficacy in %. As to the method:
Puccinia Test (Wheat)/Protective
To produce a suitable preparation of active compound, 1 part by weight of active compound is mixed with the stated amount of solvent and emulsifier, and the concentrate is diluted with water to the desired concentration.
To test for protective activity, young plants are sprayed with the preparation of active compound at the stated application rate. After the spray coating has dried on, the plants are sprayed with a conidia suspension of Puccinia recondite. The plants remain in an incubation cabin at 20° C. and 100% relative atmospheric humidity for 48 hours.
The plants are then placed in a greenhouse at a temperature of about 20° C. and a relative atmospheric humidity of 80% to promote the development of rust pustules.
Evaluation is carried out ten days after the inoculation. 0% means an efficacy which corresponds to that of the control, whereas an efficacy of 100% means that no infection is observed.

Data set [1] is described as follows: log P determination by HPLC on reverse-phase column (EEC Directive 79/831 Annex V.A8). Format: physicochemical. The conditions noted are these: 43° C.; for logP: Table 1, C 18 reverse-phase column, acidic range (pH 2.3); for chromatographic logP: pH 2.3, C 18 reverse-phase column. The method, then:
The given log P values were determined in accordance with EEC Directive 79/831 Annex V.A8 by HPLC (High Performance Liquid Chromatography) on a reverse-phase column (C 18). Temperature: 43° C.
Mobile phases for the determination in the acidic range (pH 2.3): 0.1% aqueous phosphoric acid, acetonitrile; linear gradient from 10% acetonitrile to 90% acetonitrile.
Calibration was carried out using unbranched alkan-2-ones (3 to 16 carbon atoms) with known log P values (determination of the log P values by the retention times using linear interpolation between two successive alkanones).

Another data set concerns Venturia inaequalis. As to the kind of experiment: Venturia test (apple)/protective. It counts as in vivo. The conditions noted are these: 240 h, apple plants, protective, application rate 100 g/ha, evaluation 10 days after inoculation, read-out: Efficacy in %. The method, then:
Venturia Test (Apple)/Protective
(§1) To produce a suitable preparation of active compound, 1 part by weight of active compound is mixed with the stated amounts of solvent and emulsifier, and the concentrate is diluted with water to the desired concentration.
To test for protective activity, young plants are sprayed with the preparation of active compound at the stated application rate. After the spray coating has dried on, the plants are inoculated with an aqueous conidia suspension of the apple pathogen Venturia inaequalis and then remain in an incubation cabin at about 20° C. and 100% relative atmospheric humidity for one day.
The plants are then placed in a greenhouse at about 21° C. and a relative atmospheric humidity of about 90%.
Evaluation is carried out 10 days after the inoculation. 0% means an efficacy which corresponds to that of the control, whereas an efficacy of 100% means that no infection is observed.

Another data set concerns Sphaerotheca fuliginea. The data set can be described thus: Sphaerotheca test (cucumber)/protective. It counts as in vivo. The conditions noted are these: cucumber plants, protective; application rate 750 g/ha; evaluation 7 days after inoculation. The method, then:
Sphaerotheca Test (Cucumber)/Protective
as §1
To test for protective activity, young cucumber plants are sprayed with the preparation of active compound at the stated application rate. One day after the treatment, the plants are inoculated with a spore suspension of Sphaerotheca fuliginea. The plants are then placed in a greenhouse at 70% relative atmospheric humidity and a temperature of 23° C.
Evaluation is carried out 7 days after the inoculation. 0% means an efficacy which corresponds to that of the control, whereas an efficacy of 100% means that no infection is observed.

Data on 55 compounds can be found in patent US7598389B2, “Silylated carboxamides” (Bayer Cropscience AG, priority 2003, dated 2009).

On to `CC(C[Si](C)(C)C)c1ccccc1NC(=O)c1ccccc1Br` (stereo not shown), for which the pest or weed control at 500 g/ha in the data set with Puccinia recondite came out at 100%.
For `CC(C[Si](C)(C)C)c1ccccc1NC(=O)c1ccccc1I` (racemic) [Example 2], the logP (as a rule, a log measure of how a compound divides between an organic and an aqueous phase) in data set [1] came to 4.67.
On the same count and under the same terms, the result for `CC(C[Si](C)(C)C)c1ccccc1NC(=O)c1ccccc1C(F)(F)F` (racemic) [Example 3] reads 4.63; that for `CC(C[Si](C)(C)C)c1ccccc1NC(=O)c1ccccc1Br` (racemic) [Example 7], 4.58; that for `CC(C[Si](C)(C)C)c1ccccc1NC(=O)c1occc1I` (racemic) [Example 11], 4.73.
The same measure, in the same setting: under `CC(C[Si](C)(C)C)c1ccccc1NC(=O)c1sccc1I` (racemic) [Example 12] stands 5.05; under `CC(C[Si](C)(C)C)c1ccccc1NC(=O)c1cn(C)nc1I` (racemic) [Example 15], 3.94; under `Cc1occc1C(=O)Nc1ccccc1C(C)C[Si](C)(C)C` (racemic) [Example 17], 4.33.
Same read-out and setting: under `CC(C[Si](C)(C)C)c1cc(F)ccc1NC(=O)c1ccccc1C(F)(F)F` (racemic) [Example 22] stands 4.61; under `CC(C[Si](C)(C)C)c1cc(F)ccc1NC(=O)c1ccccc1I` (racemic) [Example 23], 4.64.
For the compound `C[Si](C)(C)CCc1ccccc1NC(=O)c1ccccc1Br` [Example 1, 2-bromo-N-[2-(2-trimethylsilyl-ethyl)phenyl]benzamide], in data set [1], the chromatographic logP (commonly lipophilicity estimated from chromatographic retention) stood at 4.32.
On to `C[Si](C)(C)CCc1ccccc1NC(=O)c1ccccc1I` [Example 4], for which, in data set [1], the log partition coefficient (logP) came out at 4.40.
On the same count and under the same terms, the result for `C[Si](C)(C)CCc1ccccc1NC(=O)c1ccccc1Cl` [Example 5] reads 4.29; that for `C[Si](C)(C)CCc1ccccc1NC(=O)c1ccccc1C(F)(F)F` [Example 6], 4.37; that for `Cn1cc(C(=O)Nc2ccccc2CC[Si](C)(C)C)c(I)n1` [Example 8], 3.68.
In turn, `Cn1cc(C(=O)Nc2ccccc2CC[Si](C)(C)C)c(C(Cl)Cl)n1` [Example 9] returned a logP in data set [1] of 3.95.
The compound `Cn1nc(C(F)(F)F)c(C(=O)Nc2ccccc2CC[Si](C)(C)C)c1F` [Example 10] showed a log partition coefficient (logP) in data set [1] of 4.19.
The compound `Cn1cc(C(=O)Nc2ccccc2CC[Si](C)(C)C)c(Cl)n1` [Example 14] had a lipophilicity (logP) in data set [1] of 3.89.
Same read-out and setting: under `Cc1occc1C(=O)Nc1ccccc1CC[Si](C)(C)C` [Example 16] stands 4.03; under `C[Si](C)(C)C#Cc1ccccc1NC(=O)c1ccccc1C(F)(F)F` [Example 18], 4.78.
On the same count and under the same terms, the result for `C[Si](C)(C)C#Cc1ccccc1NC(=O)c1ccccc1I` [Example 19] reads 4.97; that for `C[Si](C)(C)C#Cc1ccccc1NC(=O)c1ccccc1Cl` [Example 20], 4.96.
`C[Si](C)(C)C#Cc1ccccc1NC(=O)c1ccccc1Br` [Example 21] displayed a logP in data set [1] of 4.93.
The compound `C[Si](C)(C)CCc1ccccc1NC(=O)c1sccc1I` [Example 24] came in with a log partition coefficient (logP) in data set [1] of 4.85.
Still for that read-out and setting: under `C[Si](C)(C)CCc1cc(F)ccc1NC(=O)c1sccc1I` [Example 25] stands 4.79; under `C[Si](C)(C)CCc1cc(F)ccc1NC(=O)c1ccccc1C(F)(F)F` [Example 26], 4.39.
`CC(C[Si](C)(C)C)c1ccccc1N` (stereo not shown) [Example (III-1), 2-(1-methyl-2-trimethylsilylethyl)phenylamine] came in with a chromatographic logP in data set [1] of 3.05.
On the same count and under the same terms, the result for `C[Si](C)(C)CCc1ccccc1N` [Example (III-2), 2-(2-trimethylsilylethyl)phenylamine] reads 2.58.
In the case of `CC(C[Si](C)(C)C)c1ccccc1NC(=O)c1ccccc1C(F)(F)F` (stereo not shown) [drawing 54], the pest or weed control at 100 g/ha in the data set on Venturia inaequalis is 99%.
In the case of `CC(C[Si](C)(C)C)c1ccccc1NC(=O)c1ccccc1I` (stereo not shown) [drawing 55], the pest or weed control at 100 g/ha in the data set with Venturia inaequalis was determined as 100%.
Same read-out and setting: the result for `C[Si](C)(C)CCc1ccccc1NC(=O)c1ccccc1C(F)(F)F` [drawing 56] reads 84%; that for `C[Si](C)(C)CCc1ccccc1NC(=O)c1ccccc1Br` [drawing 57], 87%.
On the same count and under the same terms, under `Cn1nc(C(F)(F)F)c(C(=O)Nc2ccccc2CC[Si](C)(C)C)c1F` [drawing 58] stands 100%.
The same measure, in the same setting: under `Cn1cc(C(=O)Nc2ccccc2CC[Si](C)(C)C)c(I)n1` [drawing 59] stands 100%.
With `Cc1ccsc1C(=O)Nc1ccccc1CC[Si](C)(C)C` [drawing 60], the pest or weed control at 100 g/ha in the data set on Venturia inaequalis was 100%.
`C[Si](C)(C)CCc1cc(F)ccc1NC(=O)c1sccc1I` [drawing 61]: the pest or weed control at 100 g/ha in the data set on Venturia inaequalis came to 100%.
For the compound `CC(C[Si](C)(C)C)c1ccccc1NC(=O)c1occc1I` (stereo not shown) [drawing 62], the pest or weed control at 100 g/ha in the data set on Venturia inaequalis was 100%.
On the same count and under the same terms, under `CC(C[Si](C)(C)C)c1ccccc1NC(=O)c1sccc1I` (stereo not shown) [drawing 63] stands 100%.
On to `CC(C[Si](C)(C)C)c1ccccc1NC(=O)c1cn(C)nc1I` (stereo not shown) [drawing 64], for which, in the data set with Venturia inaequalis, the pest or weed control at 100 g/ha amounted to 99%.
Regarding `CC(C[Si](C)(C)C)c1ccccc1NC(=O)c1ccccc1C(F)(F)F` (stereo not shown) [drawing 65], the Efficacy in % with Sphaerotheca fuliginea is 100%.
Compound `CC(C[Si](C)(C)C)c1ccccc1NC(=O)c1ccccc1I` (stereo not shown) [drawing 66] showed an Efficacy in % in the data set with Sphaerotheca fuliginea of 100%.
`C[Si](C)(C)CCc1ccccc1NC(=O)c1ccccc1Br` [drawing 67] displayed an Efficacy in % in the data set on Sphaerotheca fuliginea of 100%.
For `C[Si](C)(C)CCc1ccccc1NC(=O)c1ccccc1C(F)(F)F` [drawing 68], in the data set with Puccinia recondite, the pest or weed control at 500 g/ha is 93%.
Consider `CC(C[Si](C)(C)C)c1ccccc1NC(=O)c1ccccc1I` (stereo not shown) [drawing 69], for which the pest or weed control at 500 g/ha in the data set with Puccinia recondite is 100%.
Still for that read-out and setting: the result for `C[Si](C)(C)CCc1ccccc1NC(=O)c1ccccc1I` [drawing 70] reads 100%; that for `C[Si](C)(C)CCc1ccccc1NC(=O)c1ccccc1Br` [drawing 71], 100%.
For the compound `Cn1cc(C(=O)Nc2ccccc2CC[Si](C)(C)C)c(I)n1` [drawing 72], the pest or weed control at 500 g/ha in the data set on Puccinia recondite was determined as 100%.
On the same count and under the same terms, the result for `Cc1occc1C(=O)Nc1ccccc1CC[Si](C)(C)C` [drawing 73] reads 100%.
With `Cc1ccsc1C(=O)Nc1ccccc1CC[Si](C)(C)C` [drawing 74], the pest or weed control at 500 g/ha with Puccinia recondite came to 100%.
Take `C[Si](C)(C)CCc1ccccc1NC(=O)c1sccc1I` [drawing 75]: in the data set on Puccinia recondite, the pest or weed control at 500 g/ha was found to be 100%.
Take `C[Si](C)(C)CCc1cc(F)ccc1NC(=O)c1sccc1I` [drawing 76]: in the data set with Puccinia recondite, the pest or weed control at 500 g/ha amounted to 100%.
Turning to `CC(C[Si](C)(C)C)c1ccccc1NC(=O)c1occc1I` (stereo not shown) [drawing 77], the pest or weed control at 500 g/ha in the data set on Puccinia recondite was found to be 100%.
Turning to `CC(C[Si](C)(C)C)c1ccccc1NC(=O)c1sccc1I` (stereo not shown) [drawing 78], the pest or weed control at 500 g/ha in the data set with Puccinia recondite stood at 100%.
On the same count and under the same terms, the result for `CC(C[Si](C)(C)C)c1ccccc1NC(=O)c1cn(C)nc1I` (stereo not shown) [drawing 80] reads 100%.
Regarding `C[Si](C)(C)C#Cc1ccccc1[N+](=O)[O-]` [trimethyl-(2-nitrophenyl-ethynyl)silane], the chromatographic logP in data set [1] amounted to 4.12.
